Source: patent EP0491061A1, “Use of enalapril and perindopril as prolactin-lowering medicament” (Weth, Gosbert Dr. med., Dr. rer. nat., priority 1990, dated 1992)
“Also recorded” adds a separate entry of the source.

Legend:
[1] = tested on: Dopamin; assay: Plasma dopamine determination (method of Weth) in patients with circulatory disorders after dosing; type: in vivo, Patienten; settings: for Dopamin MW: mean of 12 patients
From the text: Die durch die erfindungsgemäß verwendeten N-(Aminoacyl)-aminosäuren erhöhte Freisetzung von Dopamin bei gleichzeitiger Senkung des Prolaktins konnte durch pharmakologische Tests veranschaulicht und bewiesen werden. Die Dopaminbestimmung wurde nach G. Weth, "Das Verhalten der Neurotransmitter....", Dissertation, Würzburg, 1987, S. 123-138, durchgeführt. Die Bestimmung von Prolaktin wurde radioimmunologisch nach den Methoden von P. Hwang, H. Guyda, H. Friesen, Proc. Nat. Sci. (USA) 1971,68-8, S.1902-06 durchgeführt.
Für die Untersuchungen wurden 2x12 Patienten (Alter 75±10 Jahre) herangezogen, die unter Durchblutungsstörungen, sowohl peripheren als auch zentralen, litten. Bei diesen Patienten wurden sowohl vor der Gabe von Enalaprilhydrogenmaleat, als auch 15, 30, 60, und 120 Minuten nach der Gabe von Enalaprilhydrogenmaleat Dopamin und Prolaktin bestimmt.
Die Patienten bekamen sublingual […] Enalaprilhydrogenmaleat verabreicht (RR zwischen 100/70 und 170/110; MW 130/90 mm Hg).
Die Bestimmung der Dopamin- und Prolaktinwerte wurde wie folgt vorgenommen. In Zeitabschnitten von 15, 30, 60 und 120 Minuten wurden dem Patienten je 5 ml Blut entnommen und in speziell präparierten Vakuum-Behältern, die Glutathion und EDTA enthielten gegeben. Das Blut wird sofort auf 2°C abgekühlt und bei 2°C zentrifugiert. Das überstehende Blutplasma wurde bis zur Dopamin- und Prolaktinbestimmung bei minus 80 °C tiefgefroren.
Die Dimensionsangaben betragen für Dopamin pg/ml bzw. ng/l und für Prolaktin ng/ml.

[2] = tested on: Prolaktin; assay: Plasma prolactin determination by radioimmunoassay (method of Hwang et al.) in patients after dosing; type: in vivo, Patienten; settings: for Prolaktinsenkung: average weight 60 kg

What does the source list for `CCOC(=O)[C@H](CCc1ccccc1)N[C@@H](C)C(=O)N1CCC[C@H]1C(=O)O` [Enalaprilhydrogenmaleat]?
Dopamin MW ([1]; 15 min after 20 mg Enalaprilhydrogenmaleat, plasma): 143 pg/mL; Dopamin MW ([1]; 30 min after 20 mg Enalaprilhydrogenmaleat, plasma): 188 pg/mL; Dopamin MW ([1]; 60 min after 20 mg Enalaprilhydrogenmaleat, plasma): 253 pg/mL; Dopamin MW ([1]; 90 min after 20 mg Enalaprilhydrogenmaleat, plasma): 230 pg/mL; Dopamin MW ([1]; 120 min after 20 mg Enalaprilhydrogenmaleat, plasma): 182 pg/mL; Höhepunkt des Dopaminanstiegs (time) ([1]; Fig. 1, 20 mg sublingual, average weight 60 kg, plasma): 60 min; Anstieg des Dopamins ([1]; in words, 15 min after sublingual dosing): hochsignifikanten Anstieg; also recorded: signifikanten Anstieg; Dopamin MW ([1]; time 0 (before dosing), 20 mg Enalaprilhydrogenmaleat, plasma): 105 pg/mL; Prolaktin MW ([2]; 15 min after 20 mg Enalaprilhydrogenmaleat, plasma, mean of 12 patients): 15,4 ng/ml; Prolaktin MW ([2]; 30 min after 20 mg Enalaprilhydrogenmaleat, plasma, mean of 12 patients): 14,3 ng/ml; Prolaktin MW ([2]; 60 min after 20 mg Enalaprilhydrogenmaleat, plasma, mean of 12 patients): 11,9 ng/ml; Prolaktin MW ([2]; 90 min after 20 mg Enalaprilhydrogenmaleat, plasma, mean of 12 patients): 10,8 ng/ml; Prolaktin MW ([2]; 120 min after 20 mg Enalaprilhydrogenmaleat, plasma, mean of 12 patients): 10,2 ng/ml; Senkung des Prolaktins ([2]; in words, 30 min after sublingual dosing): deutlichen Senkung; Prolaktinsenkung ([2]; in words, Fig. 2, 30 min after 20 mg oral): signifikante; Prolaktinsenkung ([2]; in words, Fig. 2, 60 min after 20 mg oral): hochsignifikante Prolaktinsenkung; Abfall von Prolaktin ([2]; in words, after 25 mg (so in the source)): signifikanten Abfall; Prolaktin MW ([2]; time 0 (before dosing), 20 mg Enalaprilhydrogenmaleat, plasma, mean of 12 patients): 16,2 ng/ml

What does the source list for `CCC[C@H](N[C@@H](C)C(=O)N1[C@H](C(=O)O)C[C@@H]2CCCC[C@@H]21)C(=O)OCC` [Perindopril]?
Prolaktin MW ([2]; 30 min after 20 mg Perindopril oral, mean of 12 patients (average weight 60 kg)): 12,3 pg/ml; Prolaktin im Blutplasma ([2]; Fig. 3, 30 min after 20 mg oral): 12 ng/mL; Prolaktin im Blutplasma ([2]; Fig. 3, 90 min after 20 mg oral): 7 ng/mL; Anfangskonzentration Prolaktin ([2]; Fig. 3, before 20 mg oral, blood plasma): 15 ng/mL
